Assay results as given in paper PMC10745659, “Chemical Constituents and α-Glucosidase Inhibitory, Antioxidant and Hepatoprotective Activities of Ampelopsis grossedentata” (Molecules, 2023).

Columns and labels:
[1] = DPPH free radical scavenging assay; details: mean ± SD, n = 4; ascorbic acid positive control
Experimental: The DPPH free radical scavenging capacity of isolated compounds was determined according to a modified method. […] All isolated compounds and positive drug were dissolved and diluted in DMSO and DPPH (2,2-Diphenyl-1-picrylhydrazyl) was dissolved in anhydrous ethanol. Briefly, 190 μL of a working solution of DPPH (0.2 mM) was added to each well. Then, 10 μL of a sample solution of different concentrations (1.6, 1.2, 0.8, 0.4, 0.2, and 0.1 mM) was added, mixed well, and left to incubate in the dark at room temperature for 60 min. After that, the absorbance values of each well were measured at 517 nm using a microplate reader and the results were obtained from a minimum of three independent experiments. Ascorbic acid was used as the positive control. DMSO was used to replace the sample solution as a blank and absolute ethanol was used to replace the DPPH solution as a control.
The percentage free radical scavenging rate (%) of each test sample for DPPH was calculated as:Free radical scavenging rate (%) = [Ablank − (Asample − Acontral)] ÷ Ablank × 100%

[2] = ABTS radical cation scavenging assay; details: mean ± SD, n = 4; ascorbic acid positive control
Experimental: The ABTS free radical scavenging capacity of all isolated compounds was measured, the procedure followed a method with minor modifications. […] Equal volumes of ABTS (2,2′-azinobis(3-ethylbenzthiazoline-6-sulphonic acid)) solution (7 mM) and potassium persulfate solution (2.45 mM) were mixed evenly and left to react at room temperature for 12 h in the dark to obtain ABTS radical cation. The mixture was then diluted with anhydrous methanol to achieve an absorbance value of about 0.7 ± 0.02 units at 405 nm. Then, 190 μL of ABTS working solution was added to each well, followed by 10 μL samples of varying concentrations (0.8, 0.4, 0.2, 0.1, 0.05, 0.025, 0.0125, and 0.00625 mM) that were dissolved and diluted with DMSO. After mixing well, the samples were incubated at room temperature for 6 min away from light. The subsequent experimental method is basically consistent with the DPPH assay, the only difference is that ABTS assay detects the absorbance value at 405 nm.
The percentage radical cation scavenging rate (%) of each test sample for ABTS was calculated as follows:Radical cation scavenging rate (%) = [Ablank − (Asample − Acontral)] ÷ Ablank × 100%
The IC50 values were calculated by using GraphPad Prism 9.0 software.

[3] = FRAP assay (total antioxidant capacity); details: for FRAP Assay: Fe2+ concentration equivalent, sample solution 0.68 mM, mean ± SD, n = 4
Experimental: The total antioxidant capacity of the samples was measured by the FRAP (ferric reducing ability of plasma) assay, with slight modifications. The acetate buffer (0.3 M, pH 3.6), TPTZ (2,4,6-tris(2-pyridyl)-S-triazine) solution (10 mM) in 40 mM HCl and ferric chloride aqueous solution (10 mM) were uniformly mixed at a volume ratio of 7:1:1 to obtain the FRAP working solution. FRAP working solution was preheated for 10 min in a constant temperature incubator at 37 °C before use. […] Then, 180 μL of FRAP working solution was added to each well, followed by 6 μL of sample solution (0.68 mM), and finally 18 μL of distilled water. Then, the mixture was stirred well and left to react at room temperature for 10 min. The absorbance values of each well were measured at 593 nm using a microplate reader and the results were obtained from at least three independent experiments. The sample solution was replaced with DMSO as a blank solution and ascorbic acid was used as a positive control. Different concentrations of FeSO4·7H2O (0.075–0.00078 μmol/mL) were used to establish the standard curve. The antioxidant capacity of the sample was expressed as the Fe^2+ concentration (μmol/mL) required to achieve the same absorbance change value. The final result was calculated by GraphPad Prism 9.0 software and presented as mean ± standard deviation (SD) of μmol Fe^2+ per milliliter.

HepG2 cells = assay: Hepatoprotective activity, APAP-induced HepG2 cell injury model (CCK-8); assay type: cell-based; details: for viability at 20 µM: Homo sapiens, 20 μM compound, APAP 6 mM, 48 h, HepG2, APAP model 68.24 ± 1.34%, n = 3, mean ± SD; for hepatoprotective activity (in words): 20 μM, APAP-induced HepG2 cell injury
Experimental: All these parameters were higher than in the preparation of cell viability positive control of 83.01 ± 0.82%.
HepG2 cells were maintained in DMEM medium supplemented with 10% fetal bovine serum, 100 U/mL penicillin G, and 100 μg/mL streptomycin. The cells were seeded in culture flasks and placed in a 5% CO2 incubator at 37 °C for routine cultivation. The hepatoprotective activities of the isolated samples were tested according to the modified method. To evaluate the effect of test samples on cell viability, a CCK-8 assay was performed. The experiment was conducted in 96-well plates, and 100 μL of HepG2 cells in logarithmic growth phase (8 × 10^5 cells/mL) were seeded in each well and cultured for 24 h. After that, samples (final concentration of 20 μM) and acetaminophen (APAP, final concentration of 6 mM) were added at one time to incubate for another 48 h. Then, 10 μL CCK-8 was added to each well and incubated for 1 h, followed by measuring the absorbance at a wavelength of 450 nm using a microplate reader.

α-glucosidase = α-glucosidase (Saccharomyces cerevisiae, UniProt P53341); assay: α-glucosidase inhibitory assay (p-NPG substrate); assay type: biochemical
Sequence of α-glucosidase (P53341 whole entry): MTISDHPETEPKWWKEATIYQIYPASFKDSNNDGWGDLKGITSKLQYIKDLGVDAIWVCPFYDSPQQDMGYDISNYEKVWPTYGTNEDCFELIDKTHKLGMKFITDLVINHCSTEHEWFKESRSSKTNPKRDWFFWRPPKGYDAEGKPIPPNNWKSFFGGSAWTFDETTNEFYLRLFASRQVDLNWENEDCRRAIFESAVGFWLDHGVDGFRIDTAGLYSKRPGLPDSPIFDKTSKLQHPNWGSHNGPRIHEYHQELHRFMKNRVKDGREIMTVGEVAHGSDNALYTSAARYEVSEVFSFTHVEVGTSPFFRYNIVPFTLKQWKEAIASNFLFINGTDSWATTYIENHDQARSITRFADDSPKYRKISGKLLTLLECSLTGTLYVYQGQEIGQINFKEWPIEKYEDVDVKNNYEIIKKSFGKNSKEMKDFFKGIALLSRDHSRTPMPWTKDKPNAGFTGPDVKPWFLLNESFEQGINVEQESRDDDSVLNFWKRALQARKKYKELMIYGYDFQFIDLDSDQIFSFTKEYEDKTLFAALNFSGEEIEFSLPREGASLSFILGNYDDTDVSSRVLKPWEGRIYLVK
Experimental: The α-glucosidase inhibitory activities of isolated compounds were evaluated by using a method previously described, but with minor modifications [34]. […] Briefly, 98 μL of PBS (0.1 M, pH 6.8) was added to each well. Then, 2 μL of different concentrations of sample solutions and 25 μL of α-glucosidase solution (0.25 U/mL) were added. After shaking and mixing slightly, the 96-well plate was placed in a 37 °C constant-temperature incubator and incubated for 20 min. Next, 25 μL of p-NPG (4 mM) was added to the plate to initiate the reaction, and it was further incubated in a 37 °C constant-temperature incubator for 15 min. Then, 50 μL of Na2CO3 (0.2 M) solution was quickly added to each well to terminate the reaction. The absorbance was measured at 405 nm using a microplate reader, and the results were obtained from a minimum of three independent experiments.

Molecule | IC50 [1] [µM] | IC50 [2] [µM] | FRAP Assay [3] [µmol/mL] | viability at 20 µM (HepG2 cells) [%] | hepatoprotective activity (in words) (HepG2 cells) | α-glucosidase inhibition (in words) (α-glucosidase) | FRAP value [3] [µmol/mL] | IC50 (α-glucosidase; mean ± SD, n = 4, acarbose positive control) [µM]
O=C(O[C@H]1C(=O)c2c(cc(O)c(O)c2O)O[C@@H]1c1cc(O)c(O)c(O)c1)c1cc(O)c(O)c(O)c1 [Compound 1, Meichasu A] | 32.52 ± 0.16 | 4.43 ± 0.02 | 1.70 ± 0.00 | 84.93 ± 0.58 |  |  |  | 
C[C@@H]1O[C@@H](Oc2c(-c3ccc(O)c(O)c3)oc3c(O)c(O)c(O)c(O)c3c2=O)[C@H](O)[C@H](O)[C@H]1O [Compound 2, Meichasu B] | 44.4 ± 0.63 | 6.73 ± 0.03 | 1.96 ± 0.01 | 88.46 ± 0.63 |  |  |  | 
O=C1c2c(O)cc(O)cc2O[C@H](c2cc(O)c(O)c(O)c2)[C@H]1O [Compound 3, (2R,3R)-Dihydromyricetin] | 28.3 ± 0.38 | 5.91 ± 0.11 | 1.71 ± 0.01 |  | moderate hepatoprotective activities |  |  | 
O=c1c(O)c(-c2ccc(O)c(O)c2)oc2cc(O)cc(O)c12 [Compound 4, Quercetin] | 25.5 ± 0.63 | 2.76 ± 0.04 | 2.67 ± 0.01 | 84.9 ± 1.21 |  |  |  | 
O=c1c(O)c(-c2cc(O)c(O)c(O)c2)oc2cc(O)cc(O)c12 [Compound 5, Myricetin] | 29.8 ± 0.59 | 3.39 ± 0.07 | 1.72 ± 0.01 |  | moderate hepatoprotective activities |  |  | 
O=C1C[C@@H](c2ccc(O)cc2)Oc2cc(O)cc(O)c21 [Compound 6, Naringenin] | > 80 | > 20 | 0.07 ± 0.00 | 83.7 ± 0.67 |  |  |  | 
O=c1c(O)c(-c2ccc(O)cc2)oc2cc(O)cc(O)c12 [Compound 7, Kaempferol] | > 80 | 19.9 ± 0.46 | 0.85 ± 0.01 | 87.08 ± 0.6 |  |  |  | 
O=C(O)c1c(O)cccc1CCc1ccc(O)cc1 [Compound 8, lunularic acid] | > 80 | > 20 | 0.13 ± 0.01 |  |  |  |  | 
O=C1c2c(O)cc(O)cc2O[C@@H](c2cc(O)c(O)c(O)c2)[C@@H]1O [Compound 10, (2S,3S)-Dihydromyricetin] | 43.5 ± 0.36 | 5.01 ± 0.11 | 1.43 ± 0.01 |  |  |  |  | 
O=c1c(O)coc2cc(O)cc(O)c12 [Compound 11, 3,5,7-Trihydroxychromone] | > 80 | > 20 | 0.15 ± 0.00 |  |  |  |  | 
O=C1c2c(O)cc(O)cc2OC(c2ccc(O)c(O)c2)C1O (stereo not shown) [Compound 12, Taxifolin] | 39.21 ± 0.18 | 7.36 ± 0.08 | 1.32 ± 0.01 | 85.4 ± 1.22 |  |  |  | 
C[C@@H]1O[C@@H](Oc2c(-c3ccc(O)cc3)oc3cc(O)cc(O)c3c2=O)[C@H](O)[C@H](O)[C@H]1O [Compound 14, Afzelin] | > 80 | > 20 | 0.07 ± 0.00 |  | essentially inactive |  |  | 
O=C(CCc1ccc(O)cc1)c1c(O)cc(O)cc1O[C@@H]1O[C@H](CO)[C@@H](O)[C@H](O)[C@H]1O [Compound 15, Phloridzin] | > 80 | > 20 | 0.17 ± 0.01 |  |  | minimally or not |  | 
CC(C)CC(=O)c1c(O)cc(O)cc1O[C@@H]1O[C@H](CO)[C@@H](O)[C@H](O)[C@H]1O [Compound 16, 2-O-[1-(3-Methylbutyryl)phloroglucin-ol]-β-D-glucopyranoside] | > 80 | > 20 | 0.24 ± 0.01 |  |  |  |  | 
O=C1CC(c2cc(O)c(O)c(O)c2)Oc2cc(O)cc(O)c21 (stereo not shown) [Compound 17, 5,7,3′,4′,5′-Pentahydroxy flavanone] | 43.1 ± 0.94 | 10.2 ± 0.13 | 1.18 ± 0.01 |  |  |  |  | 
C[C@@H]1O[C@@H](Oc2c(-c3ccc(O)c(O)c3)oc3cc(O)cc(O)c3c2=O)[C@H](O)[C@H](O)[C@H]1O [Compound 18, Quercitrin] | 63.5 ± 0.97 | 9.96 ± 0.16 | 1.35 ± 0.02 |  | essentially inactive | minimally or not |  | 
O=C(O[C@H]1C(=O)c2c(O)cc(O)cc2O[C@@H]1c1cc(O)c(O)c(O)c1)c1cc(O)c(O)c(O)c1 [Compound 19, (2R,3R)-3,4-Dihydro-5,7-dihydroxy-4-oxo-2-(3,4,5-trihydroxyphenyl)-2H-1-benzopyran-3-yl 3,4,5-trihydroxybenzoate] | 17.3 ± 0.31 | 2.19 ± 0.01 | 2.79 ± 0.01 |  |  |  | 2.79 | 
O=C1O[C@H]([C@@H](O)CO)C(O)=C1O [ascorbic acid, reference compound] | 77.9 ± 0.87 | 19 ± 0.31 | 0.57 ± 0.01 |  |  |  |  | 
COC(=O)c1cc(OC)c2c(c1-c1c(CO)cc(OC)c3c1OCO3)OCO2 [bicyclol, reference compound] |  |  |  | 83.01 ± 0.82 |  |  |  | 
Myricitrin [Compound 13] | 35.03 ± 0.28 | 6.88 ± 0.13 | 1.69 ± 0.02 |  |  | minimally or not |  | 
lunularin [Compound 9] | > 80 | > 20 | 0.09 ± 0.00 |  |  |  |  | 9.42 ± 0.51
